Assay results from patent US20120178786A9, “Use of tetramic acid derivatives for controlling pests by drenching, drip application, or dip application” (priority 2006, published 2012).

How the values were obtained:
Assay type in all cases: in vivo
[1] = system: Bemisia argentifolii (BEMIAR); assay: Example 8: drench of tropical sage plants, Henderson-Tilton efficacy against nymphs; conditions: 12 mg active substance/1 potting compost, 240 SC
Experimental: Tropical sage plants cv. “scarlet sage” (approximate height 29 cm) in 6-inch pots and infested with Bemisia argentifolii (BEMIAR) are drenched, in three replications, with an active substance solution containing the active substance I-4 (cis isomer, formulation: 240 SC) and, by way of comparison, with the commercial standard imidacloprid (240 SC) at the application rate stated. The greenhouse temperature is 27-33° C. The test is evaluated 9, 13, 20, 34 and 41 days after the treatment by determining the activity against nymphs on the leaves with the aid of the Henderson-Tilton method.

[2] = system: Trialeurodes vaporarium (TRIAVA); assay: Example 10: drip application to tomato plants on rock wool, Abbott efficacy; conditions: 9.8 mg active substance/plant, 70 WG, three treatments
Experimental: In each case 12 tomato plants cv. “Briljant” on rock wool are treated, in four replications, with a drip application against Trialeurodes vaporarium (TRIAVA) with an active substance solution containing the active substance I-4 (cis isomer, formulation: 100 OD) in comparison with the commercial standard imidacloprid (70 WG) at the application rate stated. The greenhouse temperature is 20° C. Three treatments are carried out at intervals of seven and fourteen days. The test is evaluated 14, 21, 28, 36 and 43 days after the 1st treatment by determining the efficacy with the aid of Abbott's formula.

Bemisia sp. = assay: Example 15: drench of bell pepper plots, kill rate of larvae on the leaves; conditions: 10.5 mg/plant
Experimental: Plots approximately 2×5 m in size which contain bell pepper plants are treated, in three replications, against Bemisia sp. The active substance example (I-4) cis isomer (240 SC) is drenched in an active substance solution at the application rate stated. The water application rate is 700 l/ha. Three treatments are carried out at intervals of 7 and 14 days. The test is evaluated in each case 7, 14, 21 and 28 days after the 3rd treatment by scoring the kill rate of the larvae on the leaves.

Aphis craccivora = assay: Example 3: drench of violet plants, Henderson-Tilton efficacy against nymphs; conditions: 12 mg active substance/1 potting compost, 240 SC
Experimental: Violet plants cv. “Ladies delight” (approximate height 15 cm) in 4-inch pots which had been infected with Aphis craccivora two weeks before the treatment are drenched, in four replications, with an active substance solution containing the active substance I-4 (cis isomer, formulation: 240 SC) and, by way of comparison, with the commercial standard imidacloprid (240 SC) at the application rate stated. The greenhouse temperature is 27-33° C. The test is evaluated 7, 14, 22 and 35 days after the treatment by determining the activity against nymphs on the leaves with the aid of the Henderson-Tilton method.

[3] = system: Frankliniella occidentalis (FRANOC); assay: Example 6: drench of verbena plants, Henderson-Tilton efficacy against nymphs; conditions: 12 mg active substance/1 potting compost, 240 SC
Experimental: Verbena plants (approximate height 13 cm) in 6-inch-pots which are infected with Frankliniella occidentalis (FRANOC) are drenched, in four replications, with an active substance solution containing the active substance I-4 (cis isomer, formulation: 240 SC) and, by way of comparison, with the commercial standard imidacloprid (240 SC) at the application rate stated. The greenhouse temperature is 27-33° C. The test is evaluated 7, 14, 21 and 28 days after the treatment by determining the activity against nymphs on the leaves with the aid of the Henderson-Tilton method.

[4] = system: Tetranychus urticae (TETRUR); assay: Example 5: drench of gardenia plants, Henderson-Tilton efficacy against nymphs; conditions: 38.4 mg active substance/1 potting compost, 240 SC
Experimental: Gardenia plants cv. “Cape jasmine” in 6-inch pots which had been infected with Tetranychus urticae (TETRUR) two weeks before the beginning of the experiment are drenched, in three replications, with in each case 100 ml of active substance solution containing the active substance I-4 (cis isomer, formulation: 240 SC) and, by way of comparison, with the commercial standard imidacloprid (240 SC) at the application rate stated. The greenhouse temperature is 25-30° C. The test is evaluated 3, 15 and 22 days after the treatment by determining the activity against nymphs on the leaves with the aid of the Henderson-Tilton method.

Coccus viridis = assay: Example 11: drench of gardenia plants, Henderson-Tilton efficacy against nymphs; conditions: 12 mg active substance/1 potting compost, 240 SC
Experimental: Gardenia plants cv. […] The greenhouse temperature is 27° C. The test is evaluated 7, 15, 21 and 35 days after the treatment by determining the activity against nymphs on the leaves with the aid of the Henderson-Tilton method.

[5] = system: Madeira mealybug (Phenacoccus madeirensis); assay: Example 13: drench of Coleus plants, Abbott efficacy; conditions: 12 mg active substance/1 potting compost, 240 SC
Experimental: Coleus plants (approximate height 29 cm) in 6-inch pots which have been infected approximately 4 weeks before the beginning of the experiment with Madeira mealybug (Phenacoccus madeirensis) are drenched, in three replications, with an active substance solution containing the active substance I-4 (cis isomer, formulation: 240 SC) and, by way of comparison, with the commercial standard imidacloprid (240 SC) at the application rate stated. The greenhouse temperature is 29° C. The test is evaluated 7, 14, 21 and 28 days after the treatment by determining the efficacy with the aid of Abbott's formula.

Thrips palmi = assay: Example 7: drench of cucumber plots, Abbott efficacy; conditions: 20 mg active substance/plant, two applications at 10-day interval, I-4 240 SC, imidacloprid 100 SL
Experimental: Plots approximately 5 m^2 in size and containing cucumber plants are drenched, in three replications, against Thrips palmi with an active substance solution containing the active substance I-4 (cis isomer, formulation: 240 SC) and, by way of comparison, with the standard imidacloprid (100 SL) at the application rate stated, corresponding to an approximate water application rate of 300 l/ha. Two applications are effected at a 10-day interval. The test is evaluated in each case 9 days after the first treatment and 7 and 13 days after the second treatment by determining the efficacy with the aid of Abbott's formula.

O=[N+]([O-])NC1=NCCN1Cc1ccc(Cl)nc1 [Imidacloprid, imidacloprid, reference compound]
Henderson-Tilton efficacy (%) against Bemisia argentifolii ([1]; 9 d after treatment): 94% | Henderson-Tilton efficacy (%) against Bemisia argentifolii ([1]; 13 d after treatment): 100% | Henderson-Tilton efficacy (%) against Bemisia argentifolii ([1]; 20 d after treatment): 95% | Henderson-Tilton efficacy (%) against Bemisia argentifolii ([1]; 34 d after treatment): 94% | Henderson-Tilton efficacy (%) against Bemisia argentifolii ([1]; 41 d after treatment): 100% | Abbott efficacy (%) against TRIAVA ([2]; 14 d after 1st treatment): 28.4% | Abbott efficacy (%) against TRIAVA ([2]; 21 d after 1st treatment): 55.3% | Abbott efficacy (%) against TRIAVA ([2]; 28 d after 1st treatment): 89.1% | Abbott efficacy (%) against TRIAVA ([2]; 36 d after 1st treatment): 92.0% | Abbott efficacy (%) against TRIAVA ([2]; 43 d after 1st treatment): 89.8% | Efficacy (% Abbott) against Bemisia sp. (Bemisia sp.; 7 d after 3rd treatm.): 96.6 % Abbott | Efficacy (% Abbott) against Bemisia sp. (Bemisia sp.; 14 d after 3rd treatm.): 80.6 % Abbott | Efficacy (% Abbott) against Bemisia sp. (Bemisia sp.; 21 d after 3rd treatm.): 84.6 % Abbott | Efficacy (% Abbott) against Bemisia sp. (Bemisia sp.; 28 d after 3rd treatm.): 85.7 % Abbott | Henderson-Tilton efficacy (%) against Aphis craccivora (Aphis craccivora; 7 d after treatment): 100% | Henderson-Tilton efficacy (%) against Aphis craccivora (Aphis craccivora; 14 d after treatment): 94% | Henderson-Tilton efficacy (%) against Aphis craccivora (Aphis craccivora; 22 d after treatment): 100% | Henderson-Tilton efficacy (%) against Aphis craccivora (Aphis craccivora; 35 d after treatment): 100% | Henderson-Tilton efficacy (%) against FRANOC ([3]; 7 d after treatment): 100% | Henderson-Tilton efficacy (%) against FRANOC ([3]; 14 d after treatment): 100% | Henderson-Tilton efficacy (%) against FRANOC ([3]; 21 d after treatment): 49% | Henderson-Tilton efficacy (%) against FRANOC ([3]; 28 d after treatment): 100% | Henderson-Tilton efficacy (%) against TETRUR ([4]; 3 d after treatment): 72.7% | Henderson-Tilton efficacy (%) against TETRUR ([4]; 15 d after treatment): 82.2% | Henderson-Tilton efficacy (%) against TETRUR ([4]; 22 d after treatment): 0% | Henderson-Tilton efficacy (%) against Coccus viridis (Coccus viridis; 7 d after treatment): 45% | Henderson-Tilton efficacy (%) against Coccus viridis (Coccus viridis; 15 d after treatment): 55% | Henderson-Tilton efficacy (%) against Coccus viridis (Coccus viridis; 21 d after treatment): 66% | Henderson-Tilton efficacy (%) against Coccus viridis (Coccus viridis; 35 d after treatment): 100% | Abbott efficacy (%) against Phenacoccus madeirensis ([5]; 7 d after treatment): 92% | Abbott efficacy (%) against Phenacoccus madeirensis ([5]; 14 d after treatment): 83% | Abbott efficacy (%) against Phenacoccus madeirensis ([5]; 21 d after treatment): 30% | Abbott efficacy (%) against Phenacoccus madeirensis ([5]; 28 d after treatment): 44% | Abbott efficacy (%) against THRIPL (Thrips palmi; 7 d after 2nd treatm.): 68.8% | Abbott efficacy (%) against THRIPL (Thrips palmi; 9 d after 1st treatm.): 73.7% | Abbott efficacy (%) against THRIPL (Thrips palmi; 13 d after 2nd treatm.): 44.0%
